Laboratory results reported in patent US10800741B2 (ANCUREALL PHARMACEUTICAL (SHANGHAI) CO., LTD., priority 2017, dated 2020).
Like-named read-outs stand apart in the source and are kept apart here.

Legend:
Test in all cases: KINOMEscan in vitro binding to 468 labeled protein kinases
protein kinases [1] = molecular target: T1, protein kinases (Homo sapiens, UniProt P21802); details: FGFR2, read-out: Test compound/solvent control (%)
T1 construct: purchased Discovery X company (USA), KINOMEscan screening platform
In short: (§1)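 Competition binding across 468 labelled kinases on the KINOMEscan platform, compound tested at 1000 nM, 10 nM and 1 nM, duplicate samples. Result given as percentage of DMSO solvent control; lower percentage means stronger binding.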

protein kinases [2] = molecular target: T2, protein kinases (Homo sapiens, UniProt P00519, F317I); details: read-out: Test compound/solvent control (%); for remaining binding at 0.001 µM: 1 nM; for remaining binding at 0.01 µM: 10 nM; for remaining binding at 1 µM: 1000 nM
T2 construct: purchased Discovery X company (USA), KINOMEscan screening platform
In short: as §1

protein kinases [3] = molecular target: T3, protein kinases (Homo sapiens, UniProt P00533); details: EGFR
T3 construct: purchased Discovery X company (USA), KINOMEscan screening platform
In short: as §1

protein kinases [4] = molecular target: T4, protein kinases (Homo sapiens, UniProt P10721, L576P); details: KIT(L576P), read-out: Test compound/solvent control (%)
T4 construct: purchased Discovery X company (USA), KINOMEscan screening platform
In short: as §1

protein kinases [5] = molecular target: T5, protein kinases (Homo sapiens, UniProt P06241); details: FYN, read-out: Test compound/solvent control (%)
T5 construct: purchased Discovery X company (USA), KINOMEscan screening platform
In short: as §1

protein kinases [6] = molecular target: T6, protein kinases (Homo sapiens, UniProt P07949); details: RET, read-out: Test compound/solvent control (%)
T6 construct: purchased Discovery X company (USA), KINOMEscan screening platform
In short: as §1

protein kinases [7] = molecular target: T7, protein kinases (Homo sapiens, UniProt P07949, M918T); details: RET(M918T), read-out: Test compound/solvent control (%)
T7 construct: purchased Discovery X company (USA), KINOMEscan screening platform
In short: as §1

protein kinases [8] = molecular target: T8, protein kinases (Homo sapiens, UniProt Q16620); details: TRKB (NTRK2), read-out: Test compound/solvent control (%)
T8 construct: purchased Discovery X company (USA), KINOMEscan screening platform
In short: as §1

protein kinases [9] = molecular target: T9, protein kinases (Homo sapiens, UniProt P00533, L858R); details: EGFR(L858R)
T9 construct: purchased Discovery X company (USA), KINOMEscan screening platform
In short: as §1

protein kinases [10] = molecular target: T10, protein kinases (Homo sapiens, UniProt P36888); details: FLT3, read-out: Test compound/solvent control (%)
T10 construct: purchased Discovery X company (USA), KINOMEscan screening platform
T10 sequence (P36888 27-993): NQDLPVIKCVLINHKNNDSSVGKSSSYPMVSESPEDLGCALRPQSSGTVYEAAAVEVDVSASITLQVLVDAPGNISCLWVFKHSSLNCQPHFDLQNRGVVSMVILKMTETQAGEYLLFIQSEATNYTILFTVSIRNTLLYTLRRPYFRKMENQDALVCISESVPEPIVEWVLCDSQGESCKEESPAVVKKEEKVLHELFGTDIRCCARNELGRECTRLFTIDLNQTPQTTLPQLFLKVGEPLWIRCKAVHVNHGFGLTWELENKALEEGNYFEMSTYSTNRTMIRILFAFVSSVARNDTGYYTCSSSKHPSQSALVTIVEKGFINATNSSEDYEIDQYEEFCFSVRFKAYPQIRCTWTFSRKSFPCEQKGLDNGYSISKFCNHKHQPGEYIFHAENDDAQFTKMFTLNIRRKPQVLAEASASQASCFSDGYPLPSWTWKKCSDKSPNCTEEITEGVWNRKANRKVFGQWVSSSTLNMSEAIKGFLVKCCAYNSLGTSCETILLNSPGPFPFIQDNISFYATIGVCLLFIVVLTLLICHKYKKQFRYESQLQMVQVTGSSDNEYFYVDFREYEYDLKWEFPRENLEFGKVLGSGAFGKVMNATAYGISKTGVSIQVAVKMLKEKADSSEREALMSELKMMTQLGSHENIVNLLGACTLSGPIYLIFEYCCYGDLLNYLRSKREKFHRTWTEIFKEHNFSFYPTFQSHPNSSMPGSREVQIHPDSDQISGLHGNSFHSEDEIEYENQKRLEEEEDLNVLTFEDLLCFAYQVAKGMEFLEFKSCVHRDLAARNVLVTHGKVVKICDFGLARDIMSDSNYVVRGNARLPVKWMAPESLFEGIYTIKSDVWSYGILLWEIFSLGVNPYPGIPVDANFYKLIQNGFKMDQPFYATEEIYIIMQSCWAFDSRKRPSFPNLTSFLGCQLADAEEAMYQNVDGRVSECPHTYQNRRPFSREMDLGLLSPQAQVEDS
In short: as §1

T7 sequence (P07949 29-1114 M918T): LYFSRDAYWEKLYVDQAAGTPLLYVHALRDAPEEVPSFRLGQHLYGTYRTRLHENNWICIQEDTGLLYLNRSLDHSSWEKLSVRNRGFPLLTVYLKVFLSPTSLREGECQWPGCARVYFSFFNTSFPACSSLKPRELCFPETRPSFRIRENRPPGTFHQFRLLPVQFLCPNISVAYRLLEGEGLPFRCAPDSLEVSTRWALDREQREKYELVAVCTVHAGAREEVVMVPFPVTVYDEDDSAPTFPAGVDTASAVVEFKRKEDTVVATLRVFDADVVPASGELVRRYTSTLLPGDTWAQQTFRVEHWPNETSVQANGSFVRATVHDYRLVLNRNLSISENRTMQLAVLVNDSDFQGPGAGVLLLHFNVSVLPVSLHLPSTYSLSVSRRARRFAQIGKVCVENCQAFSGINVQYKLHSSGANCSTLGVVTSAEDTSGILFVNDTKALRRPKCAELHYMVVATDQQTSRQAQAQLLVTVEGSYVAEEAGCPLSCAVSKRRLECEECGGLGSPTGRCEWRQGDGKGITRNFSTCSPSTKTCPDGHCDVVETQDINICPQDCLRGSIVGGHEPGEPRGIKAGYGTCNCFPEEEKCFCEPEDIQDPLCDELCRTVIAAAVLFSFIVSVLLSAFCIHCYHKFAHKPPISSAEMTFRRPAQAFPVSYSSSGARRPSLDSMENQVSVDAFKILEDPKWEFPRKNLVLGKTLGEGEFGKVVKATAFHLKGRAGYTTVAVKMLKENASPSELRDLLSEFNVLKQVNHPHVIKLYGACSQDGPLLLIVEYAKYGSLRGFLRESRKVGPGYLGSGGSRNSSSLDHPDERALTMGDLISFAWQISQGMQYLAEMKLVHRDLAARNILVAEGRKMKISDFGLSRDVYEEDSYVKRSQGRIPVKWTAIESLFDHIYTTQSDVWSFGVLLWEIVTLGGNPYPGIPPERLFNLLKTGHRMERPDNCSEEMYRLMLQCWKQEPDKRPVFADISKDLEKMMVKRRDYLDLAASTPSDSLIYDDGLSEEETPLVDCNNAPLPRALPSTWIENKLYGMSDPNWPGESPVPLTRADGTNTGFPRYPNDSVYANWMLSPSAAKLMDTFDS
T2 sequence (P00519 whole entry F317I): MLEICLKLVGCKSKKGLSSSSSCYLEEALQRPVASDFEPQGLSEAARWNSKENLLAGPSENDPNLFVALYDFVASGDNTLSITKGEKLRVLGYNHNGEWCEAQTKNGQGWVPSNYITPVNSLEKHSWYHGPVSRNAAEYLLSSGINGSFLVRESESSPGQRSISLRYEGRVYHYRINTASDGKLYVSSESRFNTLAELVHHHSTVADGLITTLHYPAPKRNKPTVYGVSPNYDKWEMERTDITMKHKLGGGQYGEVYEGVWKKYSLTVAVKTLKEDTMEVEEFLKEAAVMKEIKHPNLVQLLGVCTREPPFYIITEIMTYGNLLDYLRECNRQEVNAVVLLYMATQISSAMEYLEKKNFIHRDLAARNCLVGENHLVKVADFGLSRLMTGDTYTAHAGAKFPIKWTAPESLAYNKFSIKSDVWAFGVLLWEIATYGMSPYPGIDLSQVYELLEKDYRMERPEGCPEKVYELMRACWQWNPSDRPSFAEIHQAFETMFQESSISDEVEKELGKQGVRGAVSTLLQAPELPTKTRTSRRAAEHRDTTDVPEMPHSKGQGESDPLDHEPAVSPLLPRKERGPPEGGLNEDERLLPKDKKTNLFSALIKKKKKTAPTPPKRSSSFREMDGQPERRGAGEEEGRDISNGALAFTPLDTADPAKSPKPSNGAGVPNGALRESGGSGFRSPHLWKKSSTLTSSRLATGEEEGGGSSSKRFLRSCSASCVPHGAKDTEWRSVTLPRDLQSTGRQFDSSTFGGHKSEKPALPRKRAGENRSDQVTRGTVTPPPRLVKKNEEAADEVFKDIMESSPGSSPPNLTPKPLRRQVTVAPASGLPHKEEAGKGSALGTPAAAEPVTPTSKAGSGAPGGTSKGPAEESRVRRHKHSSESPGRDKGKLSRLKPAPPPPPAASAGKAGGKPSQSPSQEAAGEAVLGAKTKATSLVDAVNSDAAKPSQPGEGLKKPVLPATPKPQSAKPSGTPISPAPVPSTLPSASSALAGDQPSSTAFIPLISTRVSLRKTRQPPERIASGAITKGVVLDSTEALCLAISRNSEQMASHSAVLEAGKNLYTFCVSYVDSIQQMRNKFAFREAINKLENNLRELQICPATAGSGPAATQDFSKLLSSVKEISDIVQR
T4 sequence (P10721 26-976 L576P): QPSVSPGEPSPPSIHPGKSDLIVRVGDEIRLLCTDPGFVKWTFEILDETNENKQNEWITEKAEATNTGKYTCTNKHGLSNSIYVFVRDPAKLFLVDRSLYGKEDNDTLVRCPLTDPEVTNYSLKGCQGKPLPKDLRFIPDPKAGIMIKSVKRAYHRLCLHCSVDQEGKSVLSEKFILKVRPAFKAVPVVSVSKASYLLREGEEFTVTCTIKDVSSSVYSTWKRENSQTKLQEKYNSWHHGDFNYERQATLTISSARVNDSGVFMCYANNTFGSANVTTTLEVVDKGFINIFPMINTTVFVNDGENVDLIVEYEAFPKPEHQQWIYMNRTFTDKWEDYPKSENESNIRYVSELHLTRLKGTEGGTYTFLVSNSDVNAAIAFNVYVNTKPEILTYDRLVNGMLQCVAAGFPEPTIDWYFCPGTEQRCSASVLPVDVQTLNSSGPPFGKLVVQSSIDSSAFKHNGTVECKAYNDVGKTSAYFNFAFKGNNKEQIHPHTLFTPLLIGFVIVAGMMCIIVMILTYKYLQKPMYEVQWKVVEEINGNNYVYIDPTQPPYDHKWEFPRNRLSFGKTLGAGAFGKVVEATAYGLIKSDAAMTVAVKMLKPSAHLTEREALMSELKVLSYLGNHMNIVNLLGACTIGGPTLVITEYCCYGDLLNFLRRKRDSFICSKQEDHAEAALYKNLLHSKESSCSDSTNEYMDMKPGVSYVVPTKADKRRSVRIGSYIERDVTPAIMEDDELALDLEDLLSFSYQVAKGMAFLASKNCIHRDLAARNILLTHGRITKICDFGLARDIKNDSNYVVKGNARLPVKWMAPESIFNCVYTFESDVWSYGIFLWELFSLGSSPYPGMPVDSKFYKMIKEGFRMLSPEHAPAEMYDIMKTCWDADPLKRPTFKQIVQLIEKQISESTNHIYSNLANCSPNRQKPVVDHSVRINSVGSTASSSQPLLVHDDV
T1 sequence (P21802 22-821): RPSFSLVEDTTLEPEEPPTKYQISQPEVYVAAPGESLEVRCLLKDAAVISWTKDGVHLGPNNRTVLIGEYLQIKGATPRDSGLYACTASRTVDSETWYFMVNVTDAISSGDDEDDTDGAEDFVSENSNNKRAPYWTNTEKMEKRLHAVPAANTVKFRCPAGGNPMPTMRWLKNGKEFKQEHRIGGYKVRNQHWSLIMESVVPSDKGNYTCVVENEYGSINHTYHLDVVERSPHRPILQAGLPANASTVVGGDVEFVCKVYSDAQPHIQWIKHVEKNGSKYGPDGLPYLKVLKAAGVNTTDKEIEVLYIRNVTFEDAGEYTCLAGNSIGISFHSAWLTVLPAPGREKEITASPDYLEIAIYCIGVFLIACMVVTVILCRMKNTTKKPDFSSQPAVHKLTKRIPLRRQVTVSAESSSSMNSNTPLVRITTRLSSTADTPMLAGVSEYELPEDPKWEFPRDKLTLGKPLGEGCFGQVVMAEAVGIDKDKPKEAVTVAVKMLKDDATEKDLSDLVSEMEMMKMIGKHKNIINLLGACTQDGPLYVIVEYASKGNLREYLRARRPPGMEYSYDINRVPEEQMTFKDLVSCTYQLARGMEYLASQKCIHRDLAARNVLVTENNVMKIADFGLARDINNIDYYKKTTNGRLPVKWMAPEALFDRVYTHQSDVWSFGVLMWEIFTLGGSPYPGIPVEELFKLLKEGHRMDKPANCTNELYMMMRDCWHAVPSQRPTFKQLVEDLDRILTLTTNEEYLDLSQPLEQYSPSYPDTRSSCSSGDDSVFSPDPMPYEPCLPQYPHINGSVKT
T6 sequence (P07949 29-1114): as the sequence (P07949 29-1114 M918T) above, with T890M counted along it
T5 sequence (P06241 whole entry): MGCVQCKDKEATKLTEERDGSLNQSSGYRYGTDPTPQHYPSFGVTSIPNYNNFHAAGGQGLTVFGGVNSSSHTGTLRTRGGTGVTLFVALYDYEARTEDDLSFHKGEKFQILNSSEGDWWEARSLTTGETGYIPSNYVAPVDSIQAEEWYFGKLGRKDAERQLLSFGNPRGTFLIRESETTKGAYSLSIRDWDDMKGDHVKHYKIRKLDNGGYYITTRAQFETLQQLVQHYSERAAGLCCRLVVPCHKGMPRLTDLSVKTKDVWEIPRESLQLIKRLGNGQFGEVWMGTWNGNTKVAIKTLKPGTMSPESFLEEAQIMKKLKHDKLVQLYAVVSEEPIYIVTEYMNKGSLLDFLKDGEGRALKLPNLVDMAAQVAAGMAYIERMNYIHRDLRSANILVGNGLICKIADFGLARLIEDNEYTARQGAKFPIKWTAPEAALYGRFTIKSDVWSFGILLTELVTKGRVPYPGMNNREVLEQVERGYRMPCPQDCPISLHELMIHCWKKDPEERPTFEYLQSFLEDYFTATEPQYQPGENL

COCCOc1cc2nccc(Oc3ccc(NC(=O)Nc4cc(C(C)(C)C)n[nH]4)c(Cl)c3)c2cc1NC(C)=O [Compound 66, N-[4-{4-[3-(5-tert-butyl-2H-pyrazol-3-yl)-ureido]-3-chloro-phenoxy}-7-(2-methoxy-ethoxy)-quinolin-6-yl]-acetamide]
remaining binding at 0.001 µM (protein kinases [1]; 1 nM): 93%
remaining binding at 0.01 µM (protein kinases [1]; 10 nM): 71%
remaining binding at 1 µM (protein kinases [1]; 1000 nM): 0.25%
remaining binding at 0.001 µM (protein kinases [2]; ABL1(F317I)-phosphorylated): 100%
remaining binding at 0.01 µM (protein kinases [2]; ABL1(F317I)-phosphorylated): 31%
remaining binding at 1 µM (protein kinases [2]; ABL1(F317I)-phosphorylated): 15%
remaining binding at 0.001 µM (protein kinases [2]; ABL1(F317I)-unphosphorylated): 83%
remaining binding at 0.01 µM (protein kinases [2]; ABL1(F317I)-unphosphorylated): 17%
remaining binding at 1 µM (protein kinases [2]; ABL1(F317I)-unphosphorylated): 0.25%
Test compound/solvent control (%) (protein kinases [3]; 1 nM): 100%
Test compound/solvent control (%) (protein kinases [3]; 10 nM): 26%
Test compound/solvent control (%) (protein kinases [3]; 1000 nM): 0%
remaining binding at 0.001 µM (protein kinases [4]; 1 nM): 95%
remaining binding at 0.01 µM (protein kinases [4]; 10 nM): 32%
remaining binding at 1 µM (protein kinases [4]; 1000 nM): 0%
remaining binding at 0.001 µM (protein kinases [5]; 1 nM): 94%
remaining binding at 0.01 µM (protein kinases [5]; 10 nM): 41%
remaining binding at 1 µM (protein kinases [5]; 1000 nM): 0%
remaining binding at 0.001 µM (protein kinases [6]; 1 nM): 85%
remaining binding at 0.01 µM (protein kinases [6]; 10 nM): 17%
remaining binding at 1 µM (protein kinases [6]; 1000 nM): 0%
remaining binding at 0.001 µM (protein kinases [7]; 1 nM): 78%
remaining binding at 0.01 µM (protein kinases [7]; 10 nM): 8.5%
remaining binding at 1 µM (protein kinases [7]; 1000 nM): 0%
remaining binding at 0.001 µM (protein kinases [8]; 1 nM): 65%
remaining binding at 0.01 µM (protein kinases [8]; 10 nM): 12%
remaining binding at 1 µM (protein kinases [8]; 1000 nM): 0.35%
Test compound/solvent control (%) (protein kinases [9]; 1 nM): 87%
Test compound/solvent control (%) (protein kinases [9]; 10 nM): 28%
Test compound/solvent control (%) (protein kinases [9]; 1000 nM): 0%
remaining binding at 0.001 µM (protein kinases [10]; 1 nM): 92%
remaining binding at 0.01 µM (protein kinases [10]; 10 nM): 20%
remaining binding at 1 µM (protein kinases [10]; 1000 nM): 1.9%
